# Laboratory results taken from patent US20250353859A1, “COMPOUNDS AS CCR6 INHIBITORS” (Hoffmann-La Roche Inc., priority 2023, published 2025).
# Target: T1, human CCR6 (Homo sapiens, UniProt P51684)
# T1 sequence (P51684 1-374): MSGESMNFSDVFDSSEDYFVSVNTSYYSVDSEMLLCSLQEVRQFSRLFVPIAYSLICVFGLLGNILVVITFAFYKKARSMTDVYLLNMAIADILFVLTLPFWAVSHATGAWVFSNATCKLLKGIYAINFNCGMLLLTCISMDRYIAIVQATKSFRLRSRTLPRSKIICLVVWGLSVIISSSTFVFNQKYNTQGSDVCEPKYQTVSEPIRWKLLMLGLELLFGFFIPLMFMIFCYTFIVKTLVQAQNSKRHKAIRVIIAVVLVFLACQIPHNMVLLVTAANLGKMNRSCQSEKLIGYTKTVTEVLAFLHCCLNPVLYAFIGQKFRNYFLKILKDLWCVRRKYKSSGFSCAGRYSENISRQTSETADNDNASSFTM
# Assay: Human CCR6-CRE reporter assay
# Assay type: cell-based
# Set-up: The second construct contained the open reading frame of human CCR6 in the pUNO1 backbone; host or cells: 293FT cells (transient transfection with TransIT-293)
# Settings: 293FT cells transfected with human CCR6 and CRE-luciferase; Forskolin + CCL20, 5 h; relative Log IC50; read-out: CCR6-CRE reporter (converted)
# Protocol: 293FT cells were transfected with 2 constructs using TransIT-293 (Mirus). The first construct (pGL4.29, Promega) expressed the luciferase reporter gene luc2P in response to the binding of cAMP-induced CREB to the CREelement in its promoter. The second construct contained the open reading frame of human CCR6 in the pUNO1 backbone under the control of an enhanced CMV promoter(InVivoGen).48 h after transfection, cells were harvested and diluted to 750,000 cells/ml in culture medium (DMEM, 10% FBS, 1× pen/strep(Gibco 15140)). Compounds were 2.5-fold serially diluted in DMSO. Further dilutions were made in assay medium (DMEM, 10% FBS, 1× pen/strep, 6 μM Forskolin, 6 nM CCL20). 4 μl of the compound solution was added to a white MW384 plate, followed by […] of the cell suspension. Final DMSO concentration in the assay was 0.1%. The MW384 plate was placed in an incubator at 37° C., 5% CO2 for 5 h. Luciferase activity was determined by addition of 24 μl of a 2.5× diluted BriteLite luciferase solution(Perkin Elmer), followed by luminescence measurement using a VICTOR Plate reader (Perkin Elmer). […] The relative Log IC50 was determined with GraphPad Prism 9 using a four-parameter dose-response model.
row,IC50 [nM],SMILES
1,31.6,"CC(C)c1nnc2ccc(-c3ccc(S(=O)(=O)N4CCC(Nc5ccc(OC(F)(F)F)cn5)CC4)cc3)cn12 [Example 56, N-(1-{4-[3-(propan-2-yl)-[1,2,4]triazolo[4,3-a]pyridin-6-yl]benzenesulfonyl}piperidin-4-yl)-5-(trifluoromethoxy)pyridin-2-amine]"
2,39.8,"Cc1nnc2ccc(-c3ccc(S(=O)(=O)N4CCC(Nc5ccc(OC(F)(F)F)cn5)CC4)cc3)cn12 [Example 60, N-[1-(4-{3-methyl-[1,2,4]triazolo[4,3-a]pyridin-6-yl}benzenesulfonyl)piperidin-4-yl]-5-(trifluoromethoxy)pyridin-2-amine]"
3,39.8,"CC(C)c1cnc2ccc(-c3ccc(S(=O)(=O)N4CCC(Nc5ccc(SC(F)(F)F)cn5)CC4)cc3)cn12 [Example 64, N-(1-{4-[3-(propan-2-yl)imidazo[1,2-a]pyridin-6-yl]benzenesulfonyl}piperidin-4-yl)-5-[(trifluoromethyl)sulfanyl]pyridin-2-amine]"
4,1260,"Cc1cc(-c2ccc(S(=O)(=O)N3CCC(Nc4cc(OC(F)(F)F)ccn4)CC3)cc2)cn2c(C(C)C)cnc12 [Example 69, N-(1-{4-[8-methyl-3-(propan-2-yl)imidazo[1,2-a]pyridin-6-yl]benzenesulfonyl}piperidin-4-yl)-4-(trifluoromethoxy)pyridin-2-amine]"
5,3160,"CC(C)c1nnc2ccc(-c3ccc(S(=O)(=O)N4CCC(Nc5cc(OC(F)(F)F)ccn5)CC4)cc3)cn12 [Example 70, N-(1-{4-[3-(propan-2-yl)-[1,2,4]triazolo[4,3-a]pyridin-6-yl]benzenesulfonyl}piperidin-4-yl)-4-(trifluoromethoxy)pyridin-2-amine]"
6,1000,"Cc1cc(-c2ccc(S(=O)(=O)N3CCC(Nc4cc(OC(F)(F)F)ccn4)CC3)cc2)cn2c(C(C)C)nnc12 [Example 71, N-(1-{4-[8-methyl-3-(propan-2-yl)-[1,2,4]triazolo[4,3-a]pyridin-6-yl]benzenesulfonyl}piperidin-4-yl)-4-(trifluoromethoxy)pyridin-2-amine]"

# Second part, the molecule before the results:
row,SMILES,IC50 [nM]
1,"CC1CC(Nc2ccc(OC(F)(F)F)cc2)CCN1S(=O)(=O)c1ccc(-c2ccc(C#N)cc2)cc1 (stereo not shown) [Example 36, 4′-[(2-methyl-4-{[4-(trifluoromethoxy)phenyl]Amino}piperidin-1-yl)sulfonyl]-[1,1′-biphenyl]-4-carbonitrile]",398
2,"CC1CC(Nc2ccc(OC(F)(F)F)cc2)CCN1S(=O)(=O)c1ccc(-c2ccc3c(c2)C(=O)NC3)cc1 (stereo not shown) [Example 37, 6-{4-[(2-methyl-4-{[4-(trifluoromethoxy)phenyl]Amino}piperidin-1-yl)sulfonyl]phenyl}-2,3-dihydro-1H-isoindol-1-one]",251
3,"CNC(=O)c1cccc(-c2ccc(S(=O)(=O)N3CCC(Nc4ccc(OC(F)(F)F)cc4)CC3C)cc2)c1 (stereo not shown) [Example 38, N-methyl-4′-[(2-methyl-4-{[4-(trifluoromethoxy)phenyl]Amino}piperidin-1-yl)sulfonyl]-[1,1′-biphenyl]-3-carboxamide]",126
4,"N#Cc1ccc(-c2ccc(S(=O)(=O)[C@H]3CC[C@H](Nc4ccc(OC(F)(F)F)cc4)CC3)cc2)cc1 [Example 39, 4′-{[trans-4-{[4-(trifluoromethoxy)phenyl]Amino}cyclohexyl]sulfonyl}-[1,1′-biphenyl]-4-carbonitrile]",100
5,"N#Cc1ccc(-c2ccc(S(=O)(=O)[C@H]3CC[C@H](Nc4cccc(OC(F)(F)F)c4)CC3)cc2)cc1 [Example 40, 4′-{[trans-4-{[3-(trifluoromethoxy)phenyl]Amino}cyclohexyl]sulfonyl}-[1,1′-biphenyl]-4-carbonitrile]",398
6,"O=S(=O)(c1ccc(-c2ccc3nccn3c2)cc1)[C@H]1CC[C@H](Nc2ccc(SC(F)(F)F)cc2)CC1 [Example 45, N-[trans-4-(4-{imidazo[1,2-a]pyridin-6-yl}benzenesulfonyl)cyclohexyl]-4-[(trifluoromethyl)sulfanyl]aniline]",79.4
7,"CC(C)c1cnc2ccc(-c3ccc(S(=O)(=O)[C@H]4CC[C@H](Nc5cccc(SC(F)(F)F)c5)CC4)cc3)cn12 [Example 47, N-[trans-4-{4-[3-(propan-2-yl)imidazo[1,2-a]pyridin-6-yl]benzenesulfonyl}cyclohexyl]-3-[(trifluoromethyl)sulfanyl]aniline]",100
8,"Cc1cc(-c2ccc(S(=O)(=O)[C@H]3CC[C@H](Nc4ccc(SC(F)(F)F)cc4)CC3)cc2)cn2c(C(C)C)cnc12 [Example 48, N-[trans-4-{4-[8-methyl-3-(propan-2-yl)imidazo[1,2-a]pyridin-6-yl]benzenesulfonyl}cyclohexyl]-4-[(trifluoromethyl)sulfanyl]aniline]",79.4
9,"NC(=O)c1cc(-c2ccc(S(=O)(=O)[C@H]3CC[C@H](Nc4ccc(SC(F)(F)F)cc4)CC3)cc2)ccn1 [Example 49, 4-(4-{[trans-4-({4-[(trifluoromethyl)sulfanyl]phenyl}Amino)cyclohexyl]sulfonyl}phenyl)pyridine-2-carboxamide]",63.1
10,"O=c1[nH]nc2ccc(-c3ccc(S(=O)(=O)[C@H]4CC[C@H](Nc5ccc(SC(F)(F)F)cc5)CC4)cc3)cn12 [Example 50, 6-(4-{[trans-4-({4-[(trifluoromethyl)sulfanyl]phenyl}Amino)cyclohexyl]sulfonyl}phenyl)-2H,3H-[1,2,4]triazolo[4,3-a]pyridin-3-one]",79.4
11,"N=S(=O)(c1ccc(-c2ccc3nccn3c2)cc1)[C@H]1CC[C@H](Nc2ccc(SC(F)(F)F)cc2)CC1 (stereo partly drawn) [Example 52, (4-{imidazo[1,2-a]pyridin-6-yl}phenyl)[trans-4-({4-[(trifluoromethyl)sulfanyl]phenyl}Amino)cyclohexyl](imino)-λ^6-sulfanone]",158
12,"N=S(=O)(c1ccc(-c2ccc3n[nH]c(=O)n3c2)cc1)[C@H]1CC[C@H](Nc2ccc(SC(F)(F)F)cc2)CC1 (stereo partly drawn) [Example 53, 6-(4-{[trans-4-({4-[(trifluoromethyl)sulfanyl]phenyl}Amino)cyclohexyl]sulfonimidoyl}phenyl)-2H,3H-[1,2,4]triazolo[4,3-a]pyridin-3-one]",316
13,"N=S(=O)(c1ccc(-c2ccc3nccn3c2)cc1)[C@H]1CC[C@H](Nc2ccc(OC(F)(F)F)cn2)CC1 (stereo partly drawn) [Example 54, (4-{imidazo[1,2-a]pyridin-6-yl}phenyl)[trans-4-{[5-(trifluoromethoxy)pyridin-2-yl]Amino}cyclohexyl](imino)-λ^6-sulfanone]",631
14,"Cc1cc(-c2ccc(S(=O)(=O)N3CCC(Nc4ccc(SC(F)(F)F)cn4)CC3)cc2)cn2c(C(C)C)cnc12 [Example 61, N-(1-{4-[8-methyl-3-(propan-2-yl)imidazo[1,2-a]pyridin-6-yl]benzenesulfonyl}piperidin-4-yl)-5-[(trifluoromethyl)sulfanyl]pyridin-2-amine]",63.1

# Same assay, conditions: scaffold variant X = O, R1 = CF3; read-out: Activity in human CCR6-CRE reporter assay
row,IC50 [nM],SMILES
1,62,"NC(=O)c1cc(-c2ccc(S(=O)(=O)N3CCC(Nc4ccc(OC(F)(F)F)cn4)CC3)cc2)ccn1 [Example 58, 4-{4-[(4-{[5-(trifluoromethoxy)pyridin-2-yl]amino}piperidin-1-yl)sulfonyl]phenyl}pyridine-2-carboxamide]"

# Same assay, conditions: scaffold variant X = S, R1 = CF3; read-out: Activity in human CCR6-CRE reporter assay
row,IC50 [nM],SMILES
1,50,"O=S(=O)(c1ccc(-c2ccc3nccn3c2)cc1)N1CCC(Nc2ccc(SC(F)(F)F)cn2)CC1 [Example 62, N-[1-(4-{imidazo[1,2-a]pyridin-6-yl}benzenesulfonyl)piperidin-4-yl]-5-[(trifluoromethyl)sulfanyl]pyridin-2-amine]"
